Assay results as given in patent US20210221866A1, “PROTEASE-RESISTANT LIPIDATED GLP-1 ANALOGS” (MEDIMMUNE LIMITED, priority 2015, published 2021).
Where two headings read alike, the source gives them in different places. Numbered stars: 1 amine (or outer) side, 2 acyl side, 3 side chain; on linkers, the order of the positions; unused ones are H or OH. Square brackets hold non-standard residues; d marks the D form. Side chains are listed from the residue outwards. Peptide text beside a SMILES is read from it. * marks the point of attachment. γGlu = O=C(O)[C@H](CCC(=O)[*:2])N[*:1]; αMeF = C[C@](N)(Cc1ccccc1)C(=O)O; Myristoyl = CCCCCCCCCCCCCC(=O)*; αMeK = C[C@](N)(CCCCN)C(=O)O; Lauroyl = CCCCCCCCCCCC(=O)*; αMeS = C[C@](N)(CO)C(=O)O; AEEA = NCCOCCOCC(=O)O; Aib = CC(C)(N)C(=O)O

Tests used:
[1] = biological target: T1, human glucagon receptor (GCGR) (Homo sapiens, UniProt P47871); experiment: cAMP assay, human GCGR cells; type: cell-based; conditions: Table 9, bis-lipidated peptides
T1 construct: expressed in transfected cells; host or cells: HEK293 cells or CHO cells
T1 sequence (P47871 26-477): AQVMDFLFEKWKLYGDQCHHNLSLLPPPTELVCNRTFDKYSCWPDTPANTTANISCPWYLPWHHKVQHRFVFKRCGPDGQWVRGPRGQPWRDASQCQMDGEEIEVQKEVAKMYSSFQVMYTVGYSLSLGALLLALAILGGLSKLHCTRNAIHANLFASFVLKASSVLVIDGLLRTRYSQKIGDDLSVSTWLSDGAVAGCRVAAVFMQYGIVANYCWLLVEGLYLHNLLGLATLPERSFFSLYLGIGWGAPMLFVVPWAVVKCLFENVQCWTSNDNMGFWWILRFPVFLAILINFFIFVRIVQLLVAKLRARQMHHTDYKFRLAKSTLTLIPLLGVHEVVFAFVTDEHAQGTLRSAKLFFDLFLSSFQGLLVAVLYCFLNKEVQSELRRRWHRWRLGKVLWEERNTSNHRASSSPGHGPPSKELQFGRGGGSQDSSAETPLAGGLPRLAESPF
Method: (§1) Sample dilutions are made in duplicate.
(§2) A frozen cryo-vial of cells expressing the receptor of interest is thawed rapidly in a water-bath, transferred to pre-warmed assay buffer and spun at 240×g for 5 minutes. Cells are re-suspended in assay buffer at a batch-dependent optimized concentration (e.g. hGCGR cells at 2×10^5 cells/ml, hGLP-1R and hGIPR cells at 1×10^5 cells/ml).
(§3) To this, 5 μL cell suspension is added and the plates incubated at room temperature for 30 minutes.
(§4) cAMP levels are measured using a commercially available cAMP dynamic 2 HTRF kit (Cisbio, Cat #62AM4PEJ), following the two step protocol as per manufacturer's recommendations. In brief; anti-cAMP cryptate (donor fluorophore) and cAMP-d2 (acceptor fluorophore) are made up separately by diluting each 1/20 in conjugate & lysis buffer provided in the kit. 5 μL anti-cAMP cryptate is added to wells of the assay plate, and 5 μL cAMP-d2 is added to wells except non-specific binding (NSB) wells, to which conjugate and lysis buffer are added. […] EC50 values of the synthetic peptides determined in cAMP assays are then determined.
(§5) Data is transformed to % Delta F as described in the manufacturer's guidelines and analyzed by 4-parameter logistic fit to determine EC50 values. […] To compare the balance of activities at the GLP-1R and GCGR between different peptides and across different conditions, these can be correlated, where the EC50's are related to those of comparator peptides.

[2] = biological target: T2, human glucose-dependent insulinotropic peptide receptor (GIPR) (Homo sapiens, UniProt P48546); experiment: cAMP assay, human GIPR cells; type: cell-based; conditions: Table 9, bis-lipidated peptides
T2 construct: expressed in transfected cells; host or cells: HEK293 cells or CHO cells
T2 sequence (P48546 22-466): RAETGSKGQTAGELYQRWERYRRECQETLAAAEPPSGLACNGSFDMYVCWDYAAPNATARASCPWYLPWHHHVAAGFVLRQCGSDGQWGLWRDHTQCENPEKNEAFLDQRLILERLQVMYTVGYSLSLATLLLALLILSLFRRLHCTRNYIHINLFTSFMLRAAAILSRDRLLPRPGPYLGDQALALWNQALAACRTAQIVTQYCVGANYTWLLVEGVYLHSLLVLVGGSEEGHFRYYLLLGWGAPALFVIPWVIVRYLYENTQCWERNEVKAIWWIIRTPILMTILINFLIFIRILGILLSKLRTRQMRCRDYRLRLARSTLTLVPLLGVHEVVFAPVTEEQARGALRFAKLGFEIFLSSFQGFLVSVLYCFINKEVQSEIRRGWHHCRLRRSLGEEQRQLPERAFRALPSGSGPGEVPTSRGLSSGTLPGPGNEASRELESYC
Method: as §1, §2, §3, §4, §5

[3] = first replicate, read-out: Primary assay EC50 Gluc-R (n1)
[4] = second replicate, read-out: Primary assay EC50 Gluc-R (n2)
[5] = first replicate, read-out: Primary assay EC50 GIP-R (n1)
[6] = second replicate, read-out: Primary assay EC50 GIP-R (n2)

| EC50 [1, 3] | EC50 [1, 4] | EC50 [2, 5] | EC50 [2, 6] | Structure (SMILES) |
| --- | --- | --- | --- | --- |
| ≥ 21.5 nM | ≥ 21.5 nM | ≥ 21.5 nM | ≥ 21.5 nM | CCCCCCCCCCCCCC(=O)N[C@@H](CCC(=O)NCCOCCOCC(=O)NCCOCCOCC(=O)NCCCC[C@H](NC(=O)[C@H](C)NC(=O)[C@@H](NC(=O)[C@](C)(Cc1ccccc1)NC(=O)[C@H](CCC(=O)O)NC(=O)[C@](C)(CCCCN)NC(=O)[C@H](C)NC(=O)[C@H](C)NC(=O)[C@H](CCC(=O)O)NC(=O)CNC(=O)[C@H](CCC(=O)O)NC(=O)[C@H](CC(C)C)NC(=O)[C@H](CCCCNC(=O)COCCOCCNC(=O)COCCOCCNC(=O)CC[C@H](NC(=O)CCCCCCCCCCCCC)C(=O)O)NC(=O)[C@H](CO)NC(=O)[C@](C)(CO)NC(=O)[C@@H](NC(=O)[C@H](CC(=O)O)NC(=O)[C@H](CO)NC(=O)[C@@H](NC(=O)[C@](C)(Cc1ccccc1)NC(=O)[C@H](CO)NC(=O)CNC(=O)[C@H](CCC(=O)O)NC(=O)C(C)(C)NC(=O)[C@@H](N)Cc1c[nH]cn1)[C@@H](C)O)C(C)C)[C@@H](C)CC)C(=O)N[C@H](C(=O)N[C@H](C(=O)N[C@@H](CCC(=O)O)C(=O)NCC(=O)NCC(N)=O)C(C)C)C(C)C)C(=O)O [compound 408] (H-H[Aib]EGS[αMeF]TSDV[αMeS]SK([AEEA-AEEA-γGlu-Myristoyl])LEGEAA[αMeK]E[αMeF]IAK([AEEA-AEEA-γGlu-Myristoyl])VVEGG-NH2) |
| ≥ 22.3 nM | ≥ 22.3 nM | ≥ 22.3 nM | ≥ 22.3 nM | CCCCCCCCCCCC(=O)N[C@@H](CCC(=O)NCCOCCOCC(=O)NCCOCCOCC(=O)NCCCC[C@H](NC(=O)[C@H](CC(=O)O)NC(=O)[C@H](CO)NC(=O)[C@@H](NC(=O)[C@](C)(Cc1ccccc1)NC(=O)[C@H](CO)NC(=O)CNC(=O)[C@H](CCC(=O)O)NC(=O)C(C)(C)NC(=O)[C@@H](N)Cc1c[nH]cn1)[C@@H](C)O)C(=O)N[C@@H](CO)C(=O)N[C@@H](CO)C(=O)N[C@@H](Cc1ccc(O)cc1)C(=O)N[C@@H](CC(C)C)C(=O)N[C@@H](CCC(=O)O)C(=O)NCC(=O)N[C@@H](CCC(=O)O)C(=O)N[C@@H](C)C(=O)N[C@@H](C)C(=O)N[C@@](C)(CCCCN)C(=O)N[C@@H](CCC(=O)O)C(=O)N[C@@H](Cc1ccccc1)C(=O)N[C@H](C(=O)N[C@@H](C)C(=O)N[C@@H](Cc1c[nH]c2ccccc12)C(=O)N[C@@H](CCCCNC(=O)COCCOCCNC(=O)COCCOCCNC(=O)CC[C@H](NC(=O)CCCCCCCCCCC)C(=O)O)C(=O)N[C@H](C(=O)N[C@@H](CCC(=O)O)C(=O)NCC(=O)NCC(N)=O)C(C)C)[C@@H](C)CC)C(=O)O [compound 258] (H-H[Aib]EGS[αMeF]TSDK([AEEA-AEEA-γGlu-Lauroyl])SSYLEGEAA[αMeK]EFIAWK([AEEA-AEEA-γGlu-Lauroyl])VEGG-NH2) |
| ≥ 22.5 nM | ≥ 22.5 nM | ≥ 22.5 nM | ≥ 22.5 nM | CCCCCCCCCCCC(=O)N[C@@H](CCC(=O)NCCOCCOCC(=O)NCCOCCOCC(=O)NCCCC[C@H](NC(=O)[C@H](CO)NC(=O)[C@](C)(CO)NC(=O)[C@@H](NC(=O)[C@H](CC(=O)O)NC(=O)[C@H](CO)NC(=O)[C@@H](NC(=O)[C@](C)(Cc1ccccc1)NC(=O)[C@H](CO)NC(=O)CNC(=O)[C@H](CCC(=O)O)NC(=O)C(C)(C)NC(=O)[C@@H](N)Cc1c[nH]cn1)[C@@H](C)O)C(C)C)C(=O)N[C@@H](CC(C)C)C(=O)N[C@@H](CCC(=O)O)C(=O)NCC(=O)N[C@@H](CCC(=O)O)C(=O)N[C@@H](C)C(=O)N[C@@H](C)C(=O)N[C@@](C)(CCCCN)C(=O)N[C@@H](CCC(=O)O)C(=O)N[C@@H](Cc1ccccc1)C(=O)N[C@H](C(=O)N[C@@H](CCCCNC(=O)COCCOCCNC(=O)COCCOCCNC(=O)CC[C@H](NC(=O)CCCCCCCCCCC)C(=O)O)C(=O)N[C@@H](Cc1c[nH]c2ccccc12)C(=O)N[C@H](C(=O)N[C@H](C(=O)N[C@@H](CCC(=O)O)C(=O)NCC(=O)NCC(N)=O)C(C)C)C(C)C)[C@@H](C)CC)C(=O)O [compound 262] (H-H[Aib]EGS[αMeF]TSDV[αMeS]SK([AEEA-AEEA-γGlu-Lauroyl])LEGEAA[αMeK]EFIK([AEEA-AEEA-γGlu-Lauroyl])WVVEGG-NH2; N-terminus assumed) |
